In patent US20200397001A1, “CONTROL OF PESTS OF SOYBEAN PLANTS WITH MESOIONIC COMPOUNDS” (BASF SE, priority 2018, published 2020):

Assays:
Assay type in all cases: in vivo
Euschistus heros = assay: Brown stink bug test on sprayed soybean seedlings of Intacta and BMX-Potencia; settings: 100 ppm, 6 days after application; for efficacy on soybean with Bacillus thuringiensis toxin trait (INTACTA) versus soybean without the trait (BMX-POTENCIA): sprayed seedlings; for mortality (corrected according to Abbott): sprayed soybean seedlings of Intacta and BMX-Potencia, adults
Procedure: Brown Stink Bug (Euschistus heros)
The active compound is dissolved at the desired concentration in a mixture of 1:1 (vol:vol) distilled water:acetone. Soybean seedlings of Intacta and BMX-Potencia with one pair of true leaves were sprayed 10 with 2 ml solution using an airbrush. After dry, the plants in small pots were placed inside a transparent plastic cage and infested with 10 adults adult stage individuals. Treated cups were kept at about 25° C. Percent mortality was recorded after 6 days after application. […] Entomal., 18 (1925) 265-267.

Nezara viridula = assay: Green soldier stink bug soil drench test on lima bean plants; settings: 250 g ai/ha, 2nd instar nymphs infested 3 days after treatment, read 4 days after infestation
Procedure: Green Soldier Stink Bug (Nezara viridula)
Lima Bean (Phaseolus lunatus, ‘Henderson Bush,’ Lot #—VR06650) plants were transplanted at the two true-leaf stage into 25.8 cm2 pots filled with sifted (No. 10 sieve). Pots were held in the greenhouse and watered daily until treatment. Three days after transplant, the compounds were dissolved in acetone and then diluted with water for a final concentration of 50% acetone. Treatments were applied as a drench in 1 ml solution per plant. Plants were held in an environmental chamber (25±2° C., 24 L) and watered as needed for the duration of the test.
Three days after treatment, plants were infested with five 2nd instar nymphs. Plants were 15 covered with organza fabric bags to prevent escape. Four days after infestation, the number of live nymphs on each plant was recorded, and means were calculated for each treatment. The percent control was calculated as the percent mortality relative to the solvent blank.

Halyomorpha halys = assay: Brown marmorated stink bug spray test on soybean seeds in cups; settings: 300 ppm, adults on soybean seeds, 5 days after treatment
Procedure: Halyomorpha halys (Brown Marmorated Stink Bug)
For evaluating control of Halyomorpha halys the active compound is dissolved at the desired concentration in a mixture of 1:1 (vol:vol) distilled water:acetone with 0.005% (v/v) of Tween 20 added as surfactant. Soybean seeds are placed in a small petri dish inside a plastic cup 10 adults (5 females and 5 males) are introduced into each cup. Using an airbrush sprayer, 1 mL solution was sprayed directly inside the cups with bean pods. After drying, a water source (wet cotton in a small petri dish) is placed in each cup, and the cups closed with ventilated cover. All cups held under constant temperature of 20° C., 16L:8D photoperiod. Live insects are counted at 5 days after treatment.

N#CCCn1c(=O)c(-c2ccc(F)cc2)c([O-])[n+]2ccccc12 [Compound C-9]
efficacy on soybean with Bacillus thuringiensis toxin trait (INTACTA) versus soybean without the trait (BMX-POTENCIA) (Euschistus heros): higher efficacy
mortality (corrected according to Abbott) (Euschistus heros): 70%

N#CCCn1c(=O)c(-c2cc(C3CC3)cc(C(F)(F)F)c2)c([O-])[n+]2ccccc12 [Compound C-8]
efficacy on soybean with Bacillus thuringiensis toxin trait (INTACTA) versus soybean without the trait (BMX-POTENCIA) (Euschistus heros): higher efficacy
mortality (corrected according to Abbott) (Euschistus heros): 68%
mortality in comparison with untreated controls (percent control relative to the solvent blank) (Nezara viridula): at least 75%

Cc1cccc(-c2c([O-])[n+]3ccccc3n(CCC#N)c2=O)c1 [Compound C-6]
mortality in comparison with untreated controls (Halyomorpha halys): at least 75%
